Data taken from PubChem BioAssay AID248 (DTP/NCI, 2004).
Values joined by “and” are separate entries in the source; they are usually repeats but may differ in a detail not shown here. Identical values can stand only once. Inconclusive results and toxic doses are left out. Rule as the data show it: active = T/C of 150% or more; inactive = T/C below 125%.

Test system: L1210 leukemia ip in BDF1 mice, survival T/C
Assay: NCI In Vivo Anticancer Drug Screen. Data for tumor model L1210 Leukemia (intraperitoneal) in B6D2F1 (BDF1) mice
Settings: endpoint: mean survival time, higher = longer survival
Procedure, shortened: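 Survival endpoint. Drug-treated group vs vehicle group, expressed as T divided by C. Tumor passaged by transplantation.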

[1] = dose: 100.0 mg/kg/injection, schedule: Q04DX002 (ip), vehicle: Klucel (hydroxypropylcellulose) (HPC)
[2] = dose: 100.0 mg/kg/injection, schedule: Q01DX009 (ip), vehicle: Klucel (hydroxypropylcellulose) (HPC)
[3] = dose: 100.0 mg/kg/injection, schedule: Q04DX003 (ip), vehicle: Klucel (hydroxypropylcellulose) (HPC)
[4] = dose: 200.0 mg/kg/injection, schedule: Q01DX009 (ip), vehicle: Klucel (hydroxypropylcellulose) (HPC)
[5] = dose: 100.0 mg/kg/injection, schedule: Q04DX002 (ip), vehicle: saline
[6] = dose: 200.0 mg/kg/injection, schedule: Q04DX002 (ip), vehicle: saline
[7] = dose: 400.0 mg/kg/injection, schedule: Q04DX002 (ip), vehicle: saline
[8] = dose: 100.0 mg/kg/injection, schedule: Q01DX009 (ip), vehicle: saline with Tween-80
[9] = dose: 200.0 mg/kg/injection, schedule: Q01DX009 (ip), vehicle: saline with Tween-80
[10] = dose: 50.0 mg/kg/injection, schedule: Q01DX009 (ip), vehicle: saline with Tween-80
[11] = dose: 100.0 mg/kg/injection, schedule: Q04DX003 (ip), vehicle: saline with Tween-80
[12] = dose: 200.0 mg/kg/injection, schedule: Q04DX003 (ip), vehicle: saline with Tween-80
[13] = dose: 100.0 mg/kg/injection, schedule: Q01DX001 (ip), vehicle: saline
[14] = dose: 200.0 mg/kg/injection, schedule: Q01DX001 (ip), vehicle: saline
[15] = dose: 400.0 mg/kg/injection, schedule: Q01DX001 (ip), vehicle: saline

Measured: T/C

CCOC(=O)CS(=O)(=O)CS(=O)(=O)CC(=O)OCC
inactive: [1] 94 % of control | dose: 200.0 mg/kg/injection, schedule: Q04DX002 (ip), vehicle: Klucel (hydroxypropylcellulose) (HPC) 100 % of control | dose: 400.0 mg/kg/injection, schedule: Q04DX002 (ip), vehicle: Klucel (hydroxypropylcellulose) (HPC) 100 % of control

Nc1cc(Cl)cc2c1-c1c(Cl)cc(Cl)cc1C2O (centres undefined)
inactive: [2] 102 % of control | [3] 102 % of control | [4] 100 % of control | dose: 200.0 mg/kg/injection, schedule: Q04DX003 (ip), vehicle: Klucel (hydroxypropylcellulose) (HPC) 105 % of control | dose: 400.0 mg/kg/injection, schedule: Q04DX003 (ip), vehicle: Klucel (hydroxypropylcellulose) (HPC) 97 % of control

CN1CCN(CCNC(c2ccccc2)C(O)c2ccccc2)CC1 (centres undefined)
inactive: [3] 97 % of control

CC(C)Oc1ccc2c(c1)N(CCC1CCCCN1)c1ccccc1S2 (centres undefined)
inactive: dose: 12.5 mg/kg/injection, schedule: Q01DX009 (ip), vehicle: Klucel (hydroxypropylcellulose) (HPC) 101 % of control | dose: 25.0 mg/kg/injection, schedule: Q01DX009 (ip), vehicle: Klucel (hydroxypropylcellulose) (HPC) 103 % of control

C=C1C(=O)OCC2C(C(=O)O)=CC3C(C)C(C)=CC123 (centres undefined)
inactive: dose: 20.0 mg/kg/injection, schedule: Q01DX009 (ip), vehicle: saline with Tween-80 108 % of control | dose: 40.0 mg/kg/injection, schedule: Q01DX009 (ip), vehicle: saline with Tween-80 111 % of control

CN=C(NC)c1ccc(NC(=NC)c2ccc(C(=NC)Nc3ccc(C(=NC)NC)cc3)cc2)cc1
inactive: dose: 0.5 mg/kg/injection, schedule: Q01DX Z (ip), vehicle: saline 96 % of control | dose: 0.8 mg/kg/injection, schedule: Q01DX Z (ip), vehicle: saline 94 % of control | dose: 1.2 mg/kg/injection, schedule: Q01DX Z (ip), vehicle: saline 100 % of control | dose: 1.7 mg/kg/injection, schedule: Q01DX Z (ip), vehicle: saline 105 % of control | dose: 1.77 mg/kg/injection, schedule: Q01DX Z (ip), vehicle: saline 98 % of control | dose: 2.66 mg/kg/injection, schedule: Q01DX Z (ip), vehicle: saline 104 % of control | dose: 4.0 mg/kg/injection, schedule: Q01DX Z (ip), vehicle: saline 89 % of control | dose: 6.0 mg/kg/injection, schedule: Q01DX Z (ip), vehicle: saline 93 % of control and 103 % of control

CNCC(O)c1cc(OC)c(OC)c(OC)c1 (centres undefined)
inactive: [5] 102 % of control | [6] 93 % of control | [7] 96 % of control

NNC(=O)NN
inactive: [8] 87 % of control | [9] 90 % of control | dose: 400.0 mg/kg/injection, schedule: Q01DX009 (ip), vehicle: saline with Tween-80 87 % of control

C=CCSC(=S)OCC
inactive: dose: 25.0 mg/kg/injection, schedule: Q01DX009 (ip), vehicle: saline with Tween-80 88 % of control | [10] 104 % of control | [8] 109 % of control

CN=C(NCc1ccccc1)c1ccc(NC(=O)c2ccc(C(=O)Nc3ccc(C(=NC)NCc4ccccc4)cc3)cc2)cc1
inactive: dose: 1.9 mg/kg/injection, schedule: Q01DX Z (ip), vehicle: methylcellulose (MC) 97 % of control | dose: 3.8 mg/kg/injection, schedule: Q01DX Z (ip), vehicle: methylcellulose (MC) 108 % of control | dose: 7.5 mg/kg/injection, schedule: Q01DX Z (ip), vehicle: methylcellulose (MC) 93 % of control

C[C@]12CC[C@H]3[C@@H](CC[C@]4(O)C[C@@H](O)CC[C@]34/C=N/O)[C@@]1(O)CC[C@@H]2C1=COC(=O)C1
inactive: dose: 1.87 mg/kg/injection, schedule: Q01DX009 (ip), vehicle: carboxymethylcellulose (CMC) 93 % of control | dose: 3.75 mg/kg/injection, schedule: Q01DX009 (ip), vehicle: carboxymethylcellulose (CMC) 104 % of control | dose: 7.5 mg/kg/injection, schedule: Q01DX009 (ip), vehicle: carboxymethylcellulose (CMC) 106 % of control | dose: 30.0 mg/kg/injection, schedule: Q01DX009 (ip), vehicle: carboxymethylcellulose (CMC) 104 % of control | dose: 60.0 mg/kg/injection, schedule: Q01DX009 (ip), vehicle: carboxymethylcellulose (CMC) 93 % of control

Cc1ccc(C)c(NC(=O)NC2CCCCC2)c1
inactive: [5] 101 % of control | [6] 97 % of control | [7] 103 % of control

Cc1c2ccncc2c(C)c2c1[nH]c1ccc(Cl)cc12
inactive: dose: 37.5 mg/kg/injection, schedule: Q01DX001 (oral), vehicle: saline with Tween-80 102 % of control | [10] 96 % of control | dose: 50.0 mg/kg/injection, schedule: Q04DX003 (ip), vehicle: saline with Tween-80 104 % of control | dose: 75.0 mg/kg/injection, schedule: Q01DX001 (oral), vehicle: saline with Tween-80 103 % of control | [8] 94 % of control | [11] 98 % of control | dose: 150.0 mg/kg/injection, schedule: Q01DX001 (oral), vehicle: saline with Tween-80 97 % of control | dose: 200.0 mg/kg/injection, schedule: Q01DX001 (oral), vehicle: saline with Tween-80 108 % of control | [9] 92 % of control | [12] 90 % of control | dose: 400.0 mg/kg/injection, schedule: Q01DX001 (oral), vehicle: saline with Tween-80 107 % of control | dose: 800.0 mg/kg/injection, schedule: Q01DX001 (oral), vehicle: saline with Tween-80 113 % of control

COc1ccc([N+](=O)[O-])c2c1CONC2(C)C(=O)O (centres undefined)
inactive: dose: 100.0 mg/kg/injection, schedule: Q04DX003 (ip), vehicle: acetone 98 % of control | dose: 200.0 mg/kg/injection, schedule: Q04DX003 (ip), vehicle: acetone 95 % of control | dose: 400.0 mg/kg/injection, schedule: Q04DX003 (ip), vehicle: acetone 98 % of control

O=C(/C=C/c1ccc([N+](=O)[O-])cc1)Nc1ccc(S(=O)(=O)F)cc1
inactive: [13] 96 % of control | [2] 94 % of control | [14] 101 % of control | [4] 89 % of control | [15] 100 % of control | dose: 400.0 mg/kg/injection, schedule: Q01DX009 (ip), vehicle: Klucel (hydroxypropylcellulose) (HPC) 88 % of control

CC(C)(C)c1ccc(O)c([N+](=O)[O-])c1
inactive: dose: 25.0 mg/kg/injection, schedule: Q04DX002 (ip), vehicle: Klucel (hydroxypropylcellulose) (HPC) 86 % of control | dose: 50.0 mg/kg/injection, schedule: Q04DX002 (ip), vehicle: Klucel (hydroxypropylcellulose) (HPC) 86 % of control | [1] 102 % of control and 88 % of control

CC(C)Cc1nc2c([nH]1)c(=O)n(C)c(=O)n2C
inactive: dose: 50.0 mg/kg/injection, schedule: Q01DX001 (ip), vehicle: saline 96 % of control | [13] 104 % of control | [14] 98 % of control

C=C1CC(CC)C(C)OC1=O (centres undefined)
inactive: [13] 102 % of control | [14] 102 % of control | [15] 98 % of control

CC(=O)OCc1ccc(Cl)cc1Cl
inactive: [11] 97 % of control | [12] 97 % of control | dose: 400.0 mg/kg/injection, schedule: Q04DX003 (ip), vehicle: saline with Tween-80 101 % of control
